Assay results from patent US20230257396A1, “MACROCYCLES AND THEIR USE” (BLOSSOMHILL THERAPEUTICS, INC., priority 2020, published 2023).

Assays:
Test in all cases: KINOMEscan kinase binding assay (Eurofins/DiscoveRx), % Ctrl
Settings in all cases: 1 μM
kinases [1] = target: T1, kinases (Homo sapiens, UniProt P00519, E255K)
T1 construct: purchased Eurofins/DiscoveRx; host or cells: E. coli BL21-derived host (T7 phage display) for most kinases; HEK-293 for the rest
In short: (§1)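 Competition binding, 1 h RT: phage-tagged or HEK-293-expressed DNA-tagged kinase + immobilized ligand + compound. Eluate kinase by qPCR. % Ctrl = (test − positive ctrl)/(negative ctrl − positive ctrl) × 100; lower means stronger binding.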

kinases [2] = target: T2, kinases (Homo sapiens, UniProt P00519, F317I)
T2 construct: purchased Eurofins/DiscoveRx; host or cells: E. coli BL21-derived host (T7 phage display) for most kinases; HEK-293 for the rest
In short: as §1

kinases [3] = target: T3, kinases (Homo sapiens, UniProt P00519, H396P)
T3 construct: purchased Eurofins/DiscoveRx; host or cells: E. coli BL21-derived host (T7 phage display) for most kinases; HEK-293 for the rest
In short: as §1

kinases [4] = target: T4, kinases (Homo sapiens, UniProt P00519, T315I)
T4 construct: purchased Eurofins/DiscoveRx; host or cells: E. coli BL21-derived host (T7 phage display) for most kinases; HEK-293 for the rest
In short: as §1

kinases [5] = target: T5, kinases (Homo sapiens, UniProt P00533, DEL752-759)
T5 construct: purchased Eurofins/DiscoveRx; host or cells: E. coli BL21-derived host (T7 phage display) for most kinases; HEK-293 for the rest
In short: as §1

kinases [6] = target: T6, kinases (Homo sapiens, UniProt P00533, G719S)
T6 construct: purchased Eurofins/DiscoveRx; host or cells: E. coli BL21-derived host (T7 phage display) for most kinases; HEK-293 for the rest
In short: as §1

kinases [7] = target: T7, kinases (Homo sapiens, UniProt P00533, L858R)
T7 construct: purchased Eurofins/DiscoveRx; host or cells: E. coli BL21-derived host (T7 phage display) for most kinases; HEK-293 for the rest
In short: as §1

kinases [8] = target: T8, kinases (Homo sapiens, UniProt P07949)
T8 construct: purchased Eurofins/DiscoveRx; host or cells: E. coli BL21-derived host (T7 phage display) for most kinases; HEK-293 for the rest
T8 sequence (P07949 29-1114): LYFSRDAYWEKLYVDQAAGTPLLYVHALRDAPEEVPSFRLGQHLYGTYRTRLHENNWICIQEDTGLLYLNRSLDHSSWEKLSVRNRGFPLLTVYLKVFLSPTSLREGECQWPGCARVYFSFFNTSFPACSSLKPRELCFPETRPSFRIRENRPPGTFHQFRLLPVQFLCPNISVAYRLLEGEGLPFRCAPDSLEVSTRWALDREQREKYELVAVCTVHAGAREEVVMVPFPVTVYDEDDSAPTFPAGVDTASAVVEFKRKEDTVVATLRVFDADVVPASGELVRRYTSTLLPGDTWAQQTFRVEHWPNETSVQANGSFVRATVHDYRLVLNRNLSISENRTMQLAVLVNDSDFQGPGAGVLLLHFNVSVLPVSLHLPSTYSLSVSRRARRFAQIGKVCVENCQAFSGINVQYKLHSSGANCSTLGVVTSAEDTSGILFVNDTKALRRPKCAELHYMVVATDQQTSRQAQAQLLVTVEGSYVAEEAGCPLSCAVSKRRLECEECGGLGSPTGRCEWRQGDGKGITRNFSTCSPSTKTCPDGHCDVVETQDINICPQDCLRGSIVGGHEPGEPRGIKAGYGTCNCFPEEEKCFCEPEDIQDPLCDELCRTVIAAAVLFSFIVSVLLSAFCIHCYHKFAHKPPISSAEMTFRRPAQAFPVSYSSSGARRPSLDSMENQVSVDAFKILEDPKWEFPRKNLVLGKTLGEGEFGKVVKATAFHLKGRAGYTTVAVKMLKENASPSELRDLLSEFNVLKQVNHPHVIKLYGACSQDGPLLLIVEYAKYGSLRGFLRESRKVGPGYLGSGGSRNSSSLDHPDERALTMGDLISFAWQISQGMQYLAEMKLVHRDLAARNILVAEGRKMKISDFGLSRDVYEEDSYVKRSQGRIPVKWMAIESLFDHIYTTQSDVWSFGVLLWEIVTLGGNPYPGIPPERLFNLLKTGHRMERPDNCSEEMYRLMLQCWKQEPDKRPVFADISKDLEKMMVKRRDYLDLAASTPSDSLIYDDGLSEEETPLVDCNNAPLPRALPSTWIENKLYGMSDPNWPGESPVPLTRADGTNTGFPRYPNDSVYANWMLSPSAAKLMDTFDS
In short: as §1

kinases [9] = target: T9, kinases (Homo sapiens, UniProt P07949, M918T)
T9 construct: purchased Eurofins/DiscoveRx; host or cells: E. coli BL21-derived host (T7 phage display) for most kinases; HEK-293 for the rest
T9 sequence (P07949 29-1114 M918T): as the sequence (P07949 29-1114) above, with M890T counted along it
In short: as §1

kinases [10] = target: T10, kinases (Homo sapiens, UniProt P09619)
T10 construct: purchased Eurofins/DiscoveRx; host or cells: E. coli BL21-derived host (T7 phage display) for most kinases; HEK-293 for the rest
T10 sequence (P09619 33-1106): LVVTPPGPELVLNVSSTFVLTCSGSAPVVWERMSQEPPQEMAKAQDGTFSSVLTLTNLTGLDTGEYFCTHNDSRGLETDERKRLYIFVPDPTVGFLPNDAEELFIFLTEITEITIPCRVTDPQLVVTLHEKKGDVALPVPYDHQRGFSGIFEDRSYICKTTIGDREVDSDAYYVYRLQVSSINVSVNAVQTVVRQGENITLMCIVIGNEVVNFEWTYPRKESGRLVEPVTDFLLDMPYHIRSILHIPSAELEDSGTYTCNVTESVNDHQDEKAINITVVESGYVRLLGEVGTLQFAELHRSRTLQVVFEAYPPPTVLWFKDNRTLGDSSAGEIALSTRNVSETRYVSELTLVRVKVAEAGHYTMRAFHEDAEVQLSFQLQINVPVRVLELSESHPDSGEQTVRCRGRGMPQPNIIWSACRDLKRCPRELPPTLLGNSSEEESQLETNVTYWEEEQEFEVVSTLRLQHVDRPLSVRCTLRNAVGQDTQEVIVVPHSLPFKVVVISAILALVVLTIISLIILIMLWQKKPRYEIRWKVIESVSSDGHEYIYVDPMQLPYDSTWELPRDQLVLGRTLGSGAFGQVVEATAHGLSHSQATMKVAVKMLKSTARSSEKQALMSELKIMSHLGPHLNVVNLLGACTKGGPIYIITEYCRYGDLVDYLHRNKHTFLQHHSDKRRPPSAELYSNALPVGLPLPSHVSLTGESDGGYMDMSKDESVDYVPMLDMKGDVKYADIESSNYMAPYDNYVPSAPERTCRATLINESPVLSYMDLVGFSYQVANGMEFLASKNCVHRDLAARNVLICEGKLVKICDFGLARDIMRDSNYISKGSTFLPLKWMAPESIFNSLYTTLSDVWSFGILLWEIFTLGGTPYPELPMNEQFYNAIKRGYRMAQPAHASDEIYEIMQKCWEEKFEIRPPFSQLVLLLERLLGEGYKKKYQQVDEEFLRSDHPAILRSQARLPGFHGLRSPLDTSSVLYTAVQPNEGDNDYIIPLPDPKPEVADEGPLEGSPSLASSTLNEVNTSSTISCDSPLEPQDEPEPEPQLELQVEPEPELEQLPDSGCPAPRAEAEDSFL
In short: as §1

kinases [11] = target: T11, kinases (Homo sapiens, UniProt P10721, D816H)
T11 construct: purchased Eurofins/DiscoveRx; host or cells: E. coli BL21-derived host (T7 phage display) for most kinases; HEK-293 for the rest
T11 sequence (P10721 26-976 D816H): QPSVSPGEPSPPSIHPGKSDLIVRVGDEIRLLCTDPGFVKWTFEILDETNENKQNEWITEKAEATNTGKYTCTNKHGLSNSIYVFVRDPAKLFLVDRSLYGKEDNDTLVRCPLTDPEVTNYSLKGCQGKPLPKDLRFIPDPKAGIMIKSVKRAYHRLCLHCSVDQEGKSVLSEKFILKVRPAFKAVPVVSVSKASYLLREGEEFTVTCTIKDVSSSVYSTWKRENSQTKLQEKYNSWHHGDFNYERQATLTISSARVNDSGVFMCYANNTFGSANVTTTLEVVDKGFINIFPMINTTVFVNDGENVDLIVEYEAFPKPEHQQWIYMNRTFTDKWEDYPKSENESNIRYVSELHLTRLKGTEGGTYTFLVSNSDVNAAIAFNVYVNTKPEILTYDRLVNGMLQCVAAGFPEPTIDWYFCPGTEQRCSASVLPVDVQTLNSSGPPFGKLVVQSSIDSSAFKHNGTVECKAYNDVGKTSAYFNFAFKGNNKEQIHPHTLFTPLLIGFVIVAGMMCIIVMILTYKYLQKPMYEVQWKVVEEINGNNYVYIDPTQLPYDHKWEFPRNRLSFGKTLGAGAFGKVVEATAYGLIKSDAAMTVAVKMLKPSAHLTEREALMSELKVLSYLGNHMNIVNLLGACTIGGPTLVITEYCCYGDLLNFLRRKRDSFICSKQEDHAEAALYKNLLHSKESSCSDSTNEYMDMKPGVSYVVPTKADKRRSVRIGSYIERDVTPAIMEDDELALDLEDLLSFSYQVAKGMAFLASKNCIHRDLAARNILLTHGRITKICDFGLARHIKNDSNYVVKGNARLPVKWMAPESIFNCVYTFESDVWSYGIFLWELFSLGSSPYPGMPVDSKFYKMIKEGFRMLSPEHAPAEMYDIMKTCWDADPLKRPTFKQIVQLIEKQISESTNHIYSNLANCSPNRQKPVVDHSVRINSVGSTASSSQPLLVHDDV
In short: as §1

kinases [12] = target: T12, kinases (Homo sapiens, UniProt P10721, L576P)
T12 construct: purchased Eurofins/DiscoveRx; host or cells: E. coli BL21-derived host (T7 phage display) for most kinases; HEK-293 for the rest
T12 sequence (P10721 26-976 L576P): as the sequence (P10721 26-976 D816H) above, with L551P, H791D counted along it
In short: as §1

kinases [13] = target: T13, kinases (Homo sapiens, UniProt P10721, V559D)
T13 construct: purchased Eurofins/DiscoveRx; host or cells: E. coli BL21-derived host (T7 phage display) for most kinases; HEK-293 for the rest
T13 sequence (P10721 26-976 V559D): as the sequence (P10721 26-976 D816H) above, with V534D, H791D counted along it
In short: as §1

kinases [14] = target: T14, kinases (Homo sapiens, UniProt P16234)
T14 construct: purchased Eurofins/DiscoveRx; host or cells: E. coli BL21-derived host (T7 phage display) for most kinases; HEK-293 for the rest
T14 sequence (P16234 24-1089): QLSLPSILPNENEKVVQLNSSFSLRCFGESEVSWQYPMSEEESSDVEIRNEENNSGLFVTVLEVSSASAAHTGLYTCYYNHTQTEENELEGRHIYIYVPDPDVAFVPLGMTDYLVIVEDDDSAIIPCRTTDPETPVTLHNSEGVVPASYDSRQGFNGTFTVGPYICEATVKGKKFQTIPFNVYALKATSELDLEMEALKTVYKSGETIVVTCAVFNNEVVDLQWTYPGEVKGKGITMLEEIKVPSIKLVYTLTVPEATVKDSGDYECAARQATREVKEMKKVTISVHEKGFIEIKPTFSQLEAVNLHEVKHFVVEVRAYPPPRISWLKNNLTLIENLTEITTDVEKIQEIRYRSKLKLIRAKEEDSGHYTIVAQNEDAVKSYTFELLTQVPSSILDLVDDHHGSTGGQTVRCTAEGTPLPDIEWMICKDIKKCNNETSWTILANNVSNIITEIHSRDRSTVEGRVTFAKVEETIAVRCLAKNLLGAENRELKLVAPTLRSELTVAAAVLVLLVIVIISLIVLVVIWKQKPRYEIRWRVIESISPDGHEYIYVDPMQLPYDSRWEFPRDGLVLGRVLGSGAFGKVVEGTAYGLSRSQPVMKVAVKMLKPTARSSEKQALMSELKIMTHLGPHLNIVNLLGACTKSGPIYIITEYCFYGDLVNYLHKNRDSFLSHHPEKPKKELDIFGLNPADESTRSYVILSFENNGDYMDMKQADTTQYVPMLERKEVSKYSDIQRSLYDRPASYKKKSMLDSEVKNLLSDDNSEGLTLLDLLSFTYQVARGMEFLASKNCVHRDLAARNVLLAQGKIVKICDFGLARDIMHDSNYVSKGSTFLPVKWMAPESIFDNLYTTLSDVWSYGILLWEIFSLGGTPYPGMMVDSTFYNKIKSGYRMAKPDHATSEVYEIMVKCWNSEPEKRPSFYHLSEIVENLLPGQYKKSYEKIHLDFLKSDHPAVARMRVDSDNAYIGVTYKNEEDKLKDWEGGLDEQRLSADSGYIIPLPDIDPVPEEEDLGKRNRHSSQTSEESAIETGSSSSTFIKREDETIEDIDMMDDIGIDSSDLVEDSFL
In short: as §1

kinases [15] = target: T15, kinases (Homo sapiens, UniProt P36888, D835Y)
T15 construct: purchased Eurofins/DiscoveRx; host or cells: E. coli BL21-derived host (T7 phage display) for most kinases; HEK-293 for the rest
T15 sequence (P36888 27-993 D835Y): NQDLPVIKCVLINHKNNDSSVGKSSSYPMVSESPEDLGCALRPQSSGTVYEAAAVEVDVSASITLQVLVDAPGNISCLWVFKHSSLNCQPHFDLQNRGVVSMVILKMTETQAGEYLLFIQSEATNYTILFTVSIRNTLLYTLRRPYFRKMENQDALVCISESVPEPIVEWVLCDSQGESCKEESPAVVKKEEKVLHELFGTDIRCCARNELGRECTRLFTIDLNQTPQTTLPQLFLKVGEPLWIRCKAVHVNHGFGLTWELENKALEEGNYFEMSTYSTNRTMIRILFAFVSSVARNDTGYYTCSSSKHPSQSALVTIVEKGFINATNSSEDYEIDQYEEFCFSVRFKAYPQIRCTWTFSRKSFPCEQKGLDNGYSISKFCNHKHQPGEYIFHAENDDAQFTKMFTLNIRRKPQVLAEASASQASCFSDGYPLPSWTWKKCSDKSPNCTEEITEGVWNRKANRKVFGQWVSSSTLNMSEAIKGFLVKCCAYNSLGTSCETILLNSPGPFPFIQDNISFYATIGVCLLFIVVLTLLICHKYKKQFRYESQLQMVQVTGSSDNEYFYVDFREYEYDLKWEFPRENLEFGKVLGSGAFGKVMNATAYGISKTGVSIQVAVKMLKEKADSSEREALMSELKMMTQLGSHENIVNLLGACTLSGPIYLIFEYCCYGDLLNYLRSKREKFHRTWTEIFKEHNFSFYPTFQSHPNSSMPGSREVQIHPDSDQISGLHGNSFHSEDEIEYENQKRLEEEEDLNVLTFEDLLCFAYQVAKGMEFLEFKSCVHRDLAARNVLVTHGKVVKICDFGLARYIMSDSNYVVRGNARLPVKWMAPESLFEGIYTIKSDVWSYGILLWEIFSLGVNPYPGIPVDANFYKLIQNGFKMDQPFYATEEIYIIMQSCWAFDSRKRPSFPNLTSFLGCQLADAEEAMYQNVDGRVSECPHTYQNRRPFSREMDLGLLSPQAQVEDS
In short: as §1

SMILES | % Ctrl, ABL1(E255K)-phosphorylated (kinases [1]; ABL1(E255K)-phosphorylated) [% Ctrl] | % Ctrl, ABL1(F317I)-nonphosphorylated (kinases [2]; ABL1(F317I)-nonphosphorylated) [% Ctrl] | % Ctrl, ABL1(F317I)-phosphorylated (kinases [2]; ABL1(F317I)-phosphorylated) [% Ctrl] | % Ctrl, ABL1(H396P)-nonphosphorylated (kinases [3]; ABL1(H396P)-nonphosphorylated) [% Ctrl] | % Ctrl, ABL1(H396P)-phosphorylated (kinases [3]; ABL1(H396P)-phosphorylated) [% Ctrl] | % Ctrl, ABL1(T315I)-nonphosphorylated (kinases [4]; ABL1(T315I)-nonphosphorylated) [% Ctrl] | % Ctrl, ABL1(T315I)-phosphorylated (kinases [4]; ABL1(T315I)-phosphorylated) [% Ctrl] | % Ctrl, EGFR(S752-I759del) (kinases [5]; EGFR(S752-I759del)) [% Ctrl] | % Ctrl, EGFR(G719S) (kinases [6]; EGFR(G719S)) [% Ctrl] | % Ctrl, EGFR(L858R) (kinases [7]; EGFR(L858R)) [% Ctrl] | % Ctrl, RET (kinases [8]; RET) [% Ctrl] | % Ctrl, RET(M918T) (kinases [9]; RET(M918T)) [% Ctrl] | % Ctrl, PDGFRB (kinases [10]; PDGFRB) [% Ctrl] | % Ctrl, KIT(D816H) (kinases [11]; KIT(D816H)) [% Ctrl] | % Ctrl, KIT(L576P) (kinases [12]; KIT(L576P)) [% Ctrl] | % Ctrl, KIT(V559D) (kinases [13]; KIT(V559D)) [% Ctrl] | % Ctrl, PDGFRA (kinases [14]; PDGFRA) [% Ctrl] | % Ctrl, FLT3(D835Y) (kinases [15]; FLT3(D835Y)) [% Ctrl] | also measured
CN1CCOCCOc2cc3c(cc2Cl)NC(=O)/C3=C\c2[nH]ccc2C1=O [Ex. 143, [16a(17)Z]-19-chloro-2,5-dimethyl-6,7,9,10-tetrahydro-1H-12,14-(ethanediylidene)dipyrrolo[3,2-i:3′,4′-l][1,4,7]oxathiazacyclopentadecine-4,16(5H,15H)-dione] | – | – | – | – | – | – | – | – | – | – | – | – | – | – | – | – | – | – | % Ctrl, ABL1(E255K)-phosphorylated (kinases [1]; target ABL1(E255K)-phosphorylated): 6.4 % Ctrl; % Ctrl, ABL1(F317I)-nonphosphorylated (kinases [2]; target ABL1(F317I)-nonphosphorylated): 46 % Ctrl; % Ctrl, ABL1(F317I)-phosphorylated (kinases [2]; target ABL1(F317I)-phosphorylated): 26 % Ctrl; % Ctrl, ABL1(H396P)-nonphosphorylated (kinases [3]; target ABL1(H396P)-nonphosphorylated): 1.6 % Ctrl; % Ctrl, ABL1(H396P)-phosphorylated (kinases [3]; target ABL1(H396P)-phosphorylated): 11 % Ctrl; % Ctrl, ABL1(T315I)-nonphosphorylated (kinases [4]; target ABL1(T315I)-nonphosphorylated): 42 % Ctrl; % Ctrl, ABL1(T315I)-phosphorylated (kinases [4]; target ABL1(T315I)-phosphorylated): 27 % Ctrl; % Ctrl, EGFR(S752-I759del) (kinases [5]; target EGFR(S752-I759del)): 86 % Ctrl; % Ctrl, EGFR(G719S) (kinases [6]; target EGFR(G719S)): 94 % Ctrl; % Ctrl, EGFR(L858R) (kinases [7]; target EGFR(L858R)): 86 % Ctrl; % Ctrl, RET (kinases [8]; target RET): 0.6 % Ctrl; % Ctrl, RET(M918T) (kinases [9]; target RET(M918T)): 0.7 % Ctrl; % Ctrl, PDGFRB (kinases [10]; target PDGFRB): 32 % Ctrl; % Ctrl, KIT(D816H) (kinases [11]; target KIT(D816H)): 59 % Ctrl; % Ctrl, KIT(L576P) (kinases [12]; target KIT(L576P)): 0 % Ctrl; % Ctrl, KIT(V559D) (kinases [13]; target KIT(V559D)): 5.4 % Ctrl; % Ctrl, PDGFRA (kinases [14]; target PDGFRA): 41 % Ctrl; % Ctrl, FLT3(D835Y) (kinases [15]; target FLT3(D835Y)): 3.1 % Ctrl
Cc1cc2c([nH]1)/C=C1\C(=O)Nc3ccc(nc31)-c1ccccc1OCCCNC2=O [Ex.22, [3a(4)Z]-6-methyl-9,10,11,12-tetrahydro-1,18-(ethanediylidene)dipyrrolo[3,2-g:3′,4′-j][1,5,12]benzoxadiazacyclopentadecine-3,8(2H,5H)-dione] | 67 | 88 | 100 | 90 | 77 | 97 | 100 | 72 | 95 | 67 | 81 | 92 | 100 | 100 | 84 | 96 | 100 | 93 | –
Cc1cc2c([nH]1)/C=C1\C(=O)Nc3cc(Cl)c(cc31)OCCO[C@@H](C(=O)N(C)C)CN(C)C2=O [Ex. 137, [7R,16a(17)Z]-19-chloro-N,N,2,5-tetramethyl-4,16-dioxo-4,5,6,7,9,10,15,16-octahydro-1H-12,14-(ethanediylidene)dipyrrolo[3,2-i:3′,4′-l][1,4,7]dioxazacyclopentadecine-7-carboxamide] | 64 | 95 | 83 | 38 | 65 | 81 | 69 | 98 | 98 | 99 | 8 | 6.4 | 90 | 74 | 39 | 75 | 72 | 14 | –
Cc1cc2c([nH]1)/C=C1\C(=O)Nc3ccc(cc31)OCCOCCN(C)C2=O [Ex.91, [16a(17)Z]-2,5-dimethyl-6,7,9,10-tetrahydro-1H-12,14-(ethanediylidene)dipyrrolo[3,2-i:3′,4′-l][1,4,7]dioxazacyclopentadecine-4,16(5H,15H)-dione] | 14 | 20 | 39 | 0.55 | 15 | 4.5 | 5.8 | 63 | 87 | 100 | 4.3 | 7 | 55 | 41 | 14 | 62 | 52 | 0.25 | –
Cc1cc2c([nH]1)/C=C1\C(=O)Nc3cc(Cl)c(cc31)OCCO[C@@H](C(=O)NC1CCNCC1)CN(C)C2=O [Ex. 134, [7R,16a(17)Z]-19-chloro-2,5-dimethyl-4,16-dioxo-N-(piperidin-4-yl)-4,5,6,7,9,10,15,16-octahydro-1H-12,14-(ethaneidylidene)dipyrrolo[3,2-i:3′,4′-l][1,4,7]dioxazacyclopentadecine-7-carboxamide] | 50 | 84 | 70 | 25 | 35 | 84 | 46 | 88 | 92 | 89 | 27 | 32 | 66 | 56 | 5.1 | 43 | 72 | 10 | –
